From patent publication US10487117B2, “Antimicrobial peptide for nosocomial infections” (priority 2015, dated 2019)
In brackets after ≈: the same amount, converted by molar mass. Like-named read-outs stand apart in the source and are kept apart here. Residues, ends and D or L forms follow the SMILES beside them.

Legend:
Type in all cases: cell-based, Pseudomonas aeruginosa
planktonic P. aeruginosa [1] = assay: Minimum inhibitory concentration (MIC100) assay; details: 4 h at 37° C., mean ± SEM, max 50 μM
Protocol: First the peptide ability to inhibit the proliferation of P. aeruginosa cells was assessed by determining the minimum inhibitory concentration (MIC100).
MIC100 of each protein/peptide was determined as described (Torrent M. et al. 2012). Bacteria were incubated at 37° C. overnight in Luria-Bertani broth (LB) and diluted to give approximately 5×10^5 CFU/mL. In each assay protein/peptide serially diluted from 50 to 0.2 μM in 10 mM sodium phosphate, 0.1 M NaCl, buffer pH 7.5 were added to 100 μl bacteria dilution and incubated for 4 h at 37° C. Subsequently, samples were plated onto Petri dishes and incubated at 37° C. overnight. MIC100 values were determined as function of the total growth inhibition by the protein and peptides, from two independent experiments performed in triplicate.

planktonic P. aeruginosa [2] = assay: SYTOX Green membrane permeabilization assay, planktonic; details: for Permeabilization %max: 10% Triton X-100 as maximum reference
Protocol: Further insight into the membrane-permeabilizing effect of the selected AMPs against P. aeruginosa was evaluated by the Sytox Green assay. Local membrane disturbances allow the cell uptake of the fluorescent Sytox Green dye that subsequently stains the cell nucleic acids; the fluorescence increase is registered to monitor the cell membrane permeabilization. Therefore, the half permeabilization action (ED50) was measured, and the total permeabilization activity expressed as a percentage (Table 5). […] On the other hand, WY-12 and CA-M required a 6- to 7-fold greater concentration than RNase 3 to produce half of their permeabilizing effect.
Membrane permeabilization was followed using the method SYTOX Green Fluorescence membrane permeabilization assay. In the planktonic assay, bacterial cells were grown at 37° C. to an OD600=0.2, centrifuged at 5000×g for 5 min, and resuspended in 1×PBS to an OD600=0.2. An aliquot of 200 μl was then transferred to a microtiter plate. For biofilm assay, 24 h formed P. aeruginosa biofilm in a 96-well microtiter plate were washed three times with sterile PBS. SYTOX Green was added to a final concentration of 1 μM and incubated 15 min in darkness. Changes in the fluorescence were continuously recorded after addition of a serially diluted protein/peptides from 50 to 0.1 μM in a Victor3 plate reader. The peptide concentration required to achieve half of total and total membrane permeabilization achieved after 40 min was estimated from nonlinear regression analysis as previously described (Pulido D. et al. Antimicrob Agents Chemother 2013). A maximum reference value was taken for Triton X-100 at 10%.

planktonic P. aeruginosa [3] = test system: planktonic P. aeruginosa
Protocol: The microbial cell viability was then assayed using the BacTiter-Glo™ luminescent kit. […] No cell reduction was detected for the peptide GL-13 even for the maximum concentration assayed (50 μM).
Bacterial viability was assayed using the BacTiter-Glo™ microbial cell viability kit. Briefly, protein/peptides were dissolved in 10 mM sodium phosphate, 0.1M buffer, pH 7.5, serially diluted from 50 to 0.1 μM and tested in a 96-well microtiter plate containing P. aeruginosa planktonic (OD600˜0.2) or 24 h formed biofilm for 4 h at 37° C. Fifty microliters of BacTiter-Glo™ reagent was added to each well according to the manufacturer's instructions and incubated at room temperature for 15 min. Luminescence was read on a Victor3 plate reader with a 3-s integration time. Fifty percent (ED50) and total inhibitory concentrations were calculated by fitting the data to a dose-response curve.

planktonic P. aeruginosa [4] = assay: DiSC3(5) cytoplasmic membrane depolarization assay, planktonic; details: for Depolarization %max: 10% Triton X-100 as maximum reference
Protocol: To further investigate the antimicrobial mechanism of action of the peptide, its ability to depolarize P. aeruginosa membranes was evaluated. Depolarization activity was analyzed by the DiSC3(5) assay (Table 5). DiSC3(5) is a fluorescent probe, which is sensitive to membrane potential. The DiSC3(5) fluorescence is quenched upon interaction with intact cell membranes. When the membrane potential is lost, the probe is released to the medium, resulting in an increase of fluorescence that can be recorded as a function of peptide concentration. Thus, the half depolarization action (ED50) was evaluated, defined as the peptide concentration needed to achieve a half-depolarization effect, and the total depolarization activity at final incubation time (Table 3).
Membrane depolarization was followed using the method described earlier (Torrent M. et al. 2008). Briefly, bacterial cells were grown at 37° C. to an OD600=0.2, centrifuged at 5000×g for 7 min, washed with 5 mM Hepes at pH 7.2 containing 20 mM glucose, and resuspended in 5 mM Hepes-KOH, 20 mM glucose, and 100 mM KCl at pH 7.2 to an OD600=0.05 and 200 μl were transferred to a microtiter plate for planktonic assays. For biofilm assay, 24 h formed P. aeruginosa biofilm in a 96-well microtiter plate were washed three times with sterile PBS. Afterwards P. aeruginosa biofilms were washed with 5 mM Hepes at pH 7.2 containing 20 mM glucose, and rinsed in 5 mM Hepes-KOH, 20 mM glucose, and 100 mM KCl at pH 7.2. In both cases, DiSC3(5) was added to a final concentration of 0.4 μM and changes in the fluorescence were continuously recorded after addition of peptides at 10 μM in a Victor3 plate reader. A maximum reference value for total depolarization is calculated for Triton X-100 at 10%. Alternatively, changes in the fluorescence were continuously recorded after addition of a serially diluted protein/peptides from 50 to 0.1 μM. The peptide concentration required to achieve half of total and total membrane depolarization after 40 min incubation time was estimated from nonlinear regression analysis as previously described (Torrent M. et al. 2010)

[5] = planktonic P. aeruginosa, 4 h at 37° C., mean ± SEM, N.D. = not detected at 50 μM, read-out: IC50 (50% bacterial viability)
[6] = 40 min, N.D. = not detected at 50 μM

CC[C@H](C)[C@H](NC(=O)CNC(=O)[C@@H](NC(=O)[C@H](CCCCN)NC(=O)[C@H](CCCCN)NC(=O)[C@H](Cc1ccccc1)NC(=O)[C@H](CC(C)C)NC(=O)[C@H](CCCCN)NC(=O)[C@H](Cc1c[nH]c2ccccc12)NC(=O)[C@@H](N)CCCCN)[C@@H](C)CC)C(=O)NCC(=O)N[C@@H](C)C(=O)N[C@H](C(=O)N[C@@H](CC(C)C)C(=O)N[C@@H](CCCCN)C(=O)N[C@H](C(=O)N[C@@H](CC(C)C)C(=O)N[C@H](C(=O)N[C@H](C(=O)NCC(=O)N[C@@H](CC(C)C)C(=O)N1CCC[C@H]1C(=O)N[C@@H](C)C(=O)N[C@@H](CC(C)C)C(=O)N[C@H](C(=O)N[C@@H](CO)C(N)=O)[C@@H](C)CC)[C@@H](C)O)[C@@H](C)O)C(C)C)C(C)C [CA-M]
MIC100 (planktonic P. aeruginosa [1]): 6.00 ± 0.05 µM (≈ 16.8 µg/mL) | Permeabilization %max (planktonic P. aeruginosa [2]): 34.69 ± 2.18% | IC50 (planktonic P. aeruginosa [3]; [5]): 2540 ± 1080 nM | Depolarization %max (planktonic P. aeruginosa [4]): 71.36 ± 7.60%

CC[C@H](C)[C@H](NC(=O)[C@H](CCC(N)=O)NC(=O)CN)C(=O)N[C@H](C(=O)N[C@@H](CC(N)=O)C(=O)N[C@@H](CC(C)C)C(=O)N[C@@H](CCCCN)C(=O)N[C@@H](C)C(=O)N[C@@H](CO)C(=O)N[C@@H](CC(C)C)C(=O)N[C@@H](CC(=O)O)C(=O)N[C@@H](CC(C)C)C(=O)N[C@@H](CC(C)C)C(N)=O)[C@@H](C)CC [GL-13, GQIINLKASLDLL-NH2] (H-GQIINLKASLDLL-NH2)
MIC100 (planktonic P. aeruginosa [1]): >50 µM | Permeabilization ED50 (planktonic P. aeruginosa [2]; [6]): unable to perform any cell membrane permeabilization | IC50 (planktonic P. aeruginosa [3]; planktonic, 4 h): > 50000 nM | Depolarization ED50 (planktonic P. aeruginosa [4]; [6]): not able to produce any depolarization effect

CC[C@H](C)[C@H](NC(=O)[C@H](CCCCN)NC(=O)[C@H](CCC(=O)O)NC(=O)[C@H](CCCCN)NC(=O)[C@H](CO)NC(=O)[C@H](CCCCN)NC(=O)[C@H](CCCNC(=N)N)NC(=O)[C@H](Cc1ccccc1)NC(=O)[C@H](Cc1ccccc1)NC(=O)[C@H](CC(=O)O)NC(=O)CNC(=O)[C@H](CC(C)C)NC(=O)[C@@H](N)CC(C)C)C(=O)NCC(=O)N[C@@H](CCCCN)C(=O)N[C@@H](CCC(=O)O)C(=O)N[C@@H](Cc1ccccc1)C(=O)N[C@@H](CCCCN)C(=O)N[C@@H](CCCNC(=N)N)C(=O)N[C@H](C(=O)N[C@H](C(=O)N[C@@H](CCC(N)=O)C(=O)N[C@@H](CCCNC(=N)N)C(=O)N[C@H](C(=O)N[C@@H](CCCCN)C(=O)N[C@@H](CC(=O)O)C(=O)N[C@@H](Cc1ccccc1)C(=O)N[C@@H](CC(C)C)C(=O)N[C@@H](CCCNC(=N)N)C(=O)N[C@@H](CC(N)=O)C(=O)N[C@@H](CC(C)C)C(=O)N[C@H](C(=O)N1CCC[C@H]1C(=O)N[C@@H](CCCNC(=N)N)C(=O)N[C@H](C(=O)N[C@@H](CCC(=O)O)C(=O)N[C@@H](CO)C(N)=O)[C@@H](C)O)C(C)C)[C@@H](C)CC)C(C)C)[C@@H](C)CC [LL-37]
MIC100 (planktonic P. aeruginosa [1]): 6.00 ± 0.05 µM (≈ 27 µg/mL) | Permeabilization %max (planktonic P. aeruginosa [2]): 38.80 ± 1.13% | IC50 (planktonic P. aeruginosa [3]; [5]): 2280 ± 220 nM | Depolarization %max (planktonic P. aeruginosa [4]): 28.24 ± 2.91%
